As usually defined, the inhibition is the percentage by which the read-out fell short of the control.

What all share (experiment): Off-chip Mobility Shift Assay, kinase inhibition
What all share (format): biochemical

One assay addresses T1, SRM (Homo sapiens, UniProt Q9H3Y6).
T1 construct: purchased Carna Biosciences, Inc
Conditions: at 10 nM; recombinant SRM.

The next assay has as its target T2, CSK (Homo sapiens, UniProt P41240).
T2 construct: purchased Carna Biosciences, Inc
The note with it: at 10 nM; recombinant CSK.

The next assay deals with T3, KIT(D816Y) (Homo sapiens, UniProt P10721, D816Y).
T3 construct: purchased Carna Biosciences, Inc
Conditions: at 10 nM; recombinant KIT(D816Y).

Another assay concerns the target T4, BRK (Homo sapiens, UniProt Q13882).
T4 construct: purchased Carna Biosciences, Inc
The note with it: at 10 nM; recombinant BRK.

The target in the next assay is T5, KIT(D816E) (Homo sapiens, UniProt P10721, D816E).
T5 construct: purchased Carna Biosciences, Inc
Conditions: at 10 nM; recombinant KIT(D816E).

A further assay addresses T6, KIT(V654A) (Homo sapiens, UniProt P10721, V654A).
T6 construct: purchased Carna Biosciences, Inc
Conditions: at 10 nM; recombinant KIT(V654A).

The target in a further assay is T7, EGFR(L861Q) (Homo sapiens, UniProt P00533, L861Q).
T7 construct: purchased Carna Biosciences, Inc
Conditions: at 10 nM; recombinant EGFR(L861Q).

Another assay has as its target T8, EGFR(d746-750) (Homo sapiens, UniProt P00533, DEL746-750).
T8 construct: purchased Carna Biosciences, Inc
Conditions: at 10 nM; recombinant EGFR(d746-750).

Another assay has as its target T9, JAK1 (Homo sapiens, UniProt P23458).
T9 construct: purchased Carna Biosciences, Inc
Conditions: at 10 nM; recombinant JAK1.

The target in a further assay is T10, RET (Homo sapiens, UniProt P07949).
T10 construct: purchased Carna Biosciences, Inc
The note with it: at 10 nM; recombinant RET.

The target of a further assay is T11, RET(S891A) (Homo sapiens, UniProt P07949, S891A).
T11 construct: purchased Carna Biosciences, Inc
T11 sequence (P07949 29-1114 S891A): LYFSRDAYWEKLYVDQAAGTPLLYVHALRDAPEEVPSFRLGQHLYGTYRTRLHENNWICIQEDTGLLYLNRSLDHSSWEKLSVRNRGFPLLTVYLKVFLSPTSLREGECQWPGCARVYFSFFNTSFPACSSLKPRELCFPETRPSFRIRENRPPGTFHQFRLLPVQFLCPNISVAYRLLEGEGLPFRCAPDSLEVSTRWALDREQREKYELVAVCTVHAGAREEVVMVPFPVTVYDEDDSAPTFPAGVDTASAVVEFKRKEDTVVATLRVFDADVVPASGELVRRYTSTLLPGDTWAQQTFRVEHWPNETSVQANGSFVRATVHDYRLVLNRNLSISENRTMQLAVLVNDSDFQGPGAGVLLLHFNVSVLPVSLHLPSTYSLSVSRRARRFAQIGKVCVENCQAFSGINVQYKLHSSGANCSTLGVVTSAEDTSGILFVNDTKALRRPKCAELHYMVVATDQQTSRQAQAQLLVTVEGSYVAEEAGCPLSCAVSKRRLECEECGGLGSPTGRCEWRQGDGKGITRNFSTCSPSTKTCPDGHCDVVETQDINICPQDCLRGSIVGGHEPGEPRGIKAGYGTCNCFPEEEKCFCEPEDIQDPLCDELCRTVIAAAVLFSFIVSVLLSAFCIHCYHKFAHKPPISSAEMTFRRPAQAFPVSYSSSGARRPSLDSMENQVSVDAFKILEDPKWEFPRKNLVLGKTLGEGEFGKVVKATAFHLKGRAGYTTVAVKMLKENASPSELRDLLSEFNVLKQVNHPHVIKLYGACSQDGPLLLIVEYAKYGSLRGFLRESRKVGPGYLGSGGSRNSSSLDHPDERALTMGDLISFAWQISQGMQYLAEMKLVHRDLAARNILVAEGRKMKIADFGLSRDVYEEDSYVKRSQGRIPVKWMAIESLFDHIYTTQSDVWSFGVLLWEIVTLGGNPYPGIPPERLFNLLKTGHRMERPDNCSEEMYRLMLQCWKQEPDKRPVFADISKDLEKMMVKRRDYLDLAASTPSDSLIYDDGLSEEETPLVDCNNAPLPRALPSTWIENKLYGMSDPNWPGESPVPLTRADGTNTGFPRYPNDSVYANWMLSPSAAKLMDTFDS
Conditions: at 10 nM; recombinant RET(S891A).

A further assay deals with T12, ALK (Homo sapiens, UniProt Q9UM73).
T12 construct: purchased Carna Biosciences, Inc
The note with it: at 10 nM; recombinant ALK.

The target of the next assay is T13, WNK3 (Homo sapiens, UniProt Q9BYP7).
T13 construct: purchased Carna Biosciences, Inc
Conditions: at 10 nM; recombinant WNK3.

The target of a further assay is T14, BRAF(V600E) (Homo sapiens, UniProt P15056, V600E).
T14 construct: purchased Carna Biosciences, Inc
T14 sequence (P15056 whole entry V600E): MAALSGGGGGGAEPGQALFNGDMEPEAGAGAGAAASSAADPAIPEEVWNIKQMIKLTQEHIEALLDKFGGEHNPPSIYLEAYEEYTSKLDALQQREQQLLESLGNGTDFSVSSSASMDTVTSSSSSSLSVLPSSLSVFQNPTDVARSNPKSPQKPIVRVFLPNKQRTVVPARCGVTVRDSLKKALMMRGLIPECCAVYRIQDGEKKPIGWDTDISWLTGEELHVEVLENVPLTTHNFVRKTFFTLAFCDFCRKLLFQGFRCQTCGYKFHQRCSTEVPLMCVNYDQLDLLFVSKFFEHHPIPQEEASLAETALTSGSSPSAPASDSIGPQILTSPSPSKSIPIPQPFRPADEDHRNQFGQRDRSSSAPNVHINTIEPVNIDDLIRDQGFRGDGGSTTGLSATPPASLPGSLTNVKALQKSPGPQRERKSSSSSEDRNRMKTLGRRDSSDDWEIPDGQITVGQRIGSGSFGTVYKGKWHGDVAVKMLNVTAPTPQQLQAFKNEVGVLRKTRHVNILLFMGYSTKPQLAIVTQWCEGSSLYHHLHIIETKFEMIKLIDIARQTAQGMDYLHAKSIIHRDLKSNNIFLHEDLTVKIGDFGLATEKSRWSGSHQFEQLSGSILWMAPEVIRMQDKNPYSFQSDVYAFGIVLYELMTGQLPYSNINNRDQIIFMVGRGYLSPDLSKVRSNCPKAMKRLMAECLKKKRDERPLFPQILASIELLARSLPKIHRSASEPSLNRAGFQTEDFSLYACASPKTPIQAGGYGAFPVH
Conditions: at 10 nM; recombinant BRAF(V600E).

A further assay addresses T15, ROCK1 (Homo sapiens, UniProt Q13464).
T15 construct: purchased Carna Biosciences, Inc
The note with it: at 10 nM; recombinant ROCK1.

In the next assay the target is T16, AurA (Homo sapiens, UniProt O14965).
T16 construct: purchased Carna Biosciences, Inc
Conditions: at 10 nM; recombinant AurA.

The target of a further assay is T17, MAP2K2 (Homo sapiens, UniProt P36507).
T17 construct: purchased Carna Biosciences, Inc
T17 sequence (P36507 whole entry): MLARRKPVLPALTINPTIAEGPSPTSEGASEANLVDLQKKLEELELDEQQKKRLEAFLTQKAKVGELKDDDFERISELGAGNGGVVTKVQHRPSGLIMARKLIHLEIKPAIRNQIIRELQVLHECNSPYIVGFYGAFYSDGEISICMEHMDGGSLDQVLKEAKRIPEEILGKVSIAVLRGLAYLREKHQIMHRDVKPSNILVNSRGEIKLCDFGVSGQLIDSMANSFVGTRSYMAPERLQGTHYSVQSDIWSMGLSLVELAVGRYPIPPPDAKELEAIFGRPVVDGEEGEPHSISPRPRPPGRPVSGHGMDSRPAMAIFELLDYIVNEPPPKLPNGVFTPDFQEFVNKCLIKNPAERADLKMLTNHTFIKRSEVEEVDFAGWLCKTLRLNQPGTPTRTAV
Conditions: at 10 nM; recombinant MAP2K2.

The target of a further assay is T18, RET(M918T) (Homo sapiens, UniProt P07949, M918T).
T18 construct: purchased Carna Biosciences, Inc
Conditions: at 10 nM; recombinant RET(M918T).

The next assay deals with T19, FGFR2 (Homo sapiens, UniProt P21802).
T19 construct: purchased Carna Biosciences, Inc
The note with it: at 10 nM; recombinant FGFR2.

For another assay, the target named is T20, EGFR(T790M) (Homo sapiens, UniProt P00533, T790M).
T20 construct: purchased Carna Biosciences, Inc
Conditions: at 10 nM; recombinant EGFR(T790M).

For another assay, the target named is T21, PDGFRα(T674I) (Homo sapiens, UniProt P16234, T674I).
T21 construct: purchased Carna Biosciences, Inc
T21 sequence (P16234 24-1089 T674I): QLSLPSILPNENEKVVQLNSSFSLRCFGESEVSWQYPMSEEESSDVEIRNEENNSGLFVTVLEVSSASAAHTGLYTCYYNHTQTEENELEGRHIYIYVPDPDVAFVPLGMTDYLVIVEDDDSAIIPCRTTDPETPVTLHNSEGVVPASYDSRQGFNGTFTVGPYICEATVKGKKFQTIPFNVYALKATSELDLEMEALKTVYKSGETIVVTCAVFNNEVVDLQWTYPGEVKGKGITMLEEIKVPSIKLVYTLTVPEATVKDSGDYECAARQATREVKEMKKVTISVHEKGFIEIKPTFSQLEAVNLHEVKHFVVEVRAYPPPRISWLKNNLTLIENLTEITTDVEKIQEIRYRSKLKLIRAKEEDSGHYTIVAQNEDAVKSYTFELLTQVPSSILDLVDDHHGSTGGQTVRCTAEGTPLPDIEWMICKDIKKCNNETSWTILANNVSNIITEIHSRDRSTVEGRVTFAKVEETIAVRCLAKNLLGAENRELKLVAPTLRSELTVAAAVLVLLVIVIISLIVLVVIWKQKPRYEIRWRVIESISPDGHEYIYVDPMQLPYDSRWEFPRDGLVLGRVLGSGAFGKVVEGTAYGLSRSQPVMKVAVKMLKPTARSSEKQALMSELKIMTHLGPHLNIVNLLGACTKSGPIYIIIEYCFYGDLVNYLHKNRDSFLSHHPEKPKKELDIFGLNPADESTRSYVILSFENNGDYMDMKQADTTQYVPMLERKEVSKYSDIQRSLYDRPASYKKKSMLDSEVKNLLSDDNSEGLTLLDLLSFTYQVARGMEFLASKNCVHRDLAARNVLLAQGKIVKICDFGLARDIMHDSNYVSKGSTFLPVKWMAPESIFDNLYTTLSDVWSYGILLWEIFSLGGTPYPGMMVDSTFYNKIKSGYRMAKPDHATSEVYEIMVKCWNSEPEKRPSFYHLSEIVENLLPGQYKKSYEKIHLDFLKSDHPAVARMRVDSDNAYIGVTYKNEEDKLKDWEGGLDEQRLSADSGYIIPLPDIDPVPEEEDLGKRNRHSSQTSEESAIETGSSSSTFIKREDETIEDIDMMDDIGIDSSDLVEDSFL
Conditions: at 10 nM; recombinant PDGFRα(T674I).

A further assay addresses T22, JAK3 (Homo sapiens, UniProt P52333).
T22 construct: purchased Carna Biosciences, Inc
Conditions: at 10 nM; recombinant JAK3.

A further assay concerns the target T23, MAP2K1 (Homo sapiens, UniProt Q02750).
T23 construct: purchased Carna Biosciences, Inc
The note with it: at 10 nM; recombinant MAP2K1.

A further assay concerns the target T24, EGFR(T790M/L858R) (Homo sapiens, UniProt P00533, L858R/T790M).
T24 construct: purchased Carna Biosciences, Inc
Conditions: at 10 nM; recombinant EGFR(T790M/L858R).

For another assay, the target named is T25, FLT1 (Homo sapiens, UniProt P17948).
T25 construct: purchased Carna Biosciences, Inc
The note with it: at 10 nM; recombinant FLT1.

The target of a further assay is T26, MET (Homo sapiens, UniProt P08581).
T26 construct: purchased Carna Biosciences, Inc
The note with it: at 10 nM; recombinant MET.

Another assay concerns the target T27, MST1 (Homo sapiens, UniProt Q13043).
T27 construct: purchased Carna Biosciences, Inc
Conditions: at 10 nM; recombinant MST1.

The next assay addresses T28, PKD1 (Homo sapiens, UniProt Q15139).
T28 construct: purchased Carna Biosciences, Inc
Conditions: at 10 nM; recombinant PKD1.

For a further assay, the target named is T29, JAK2 (Homo sapiens, UniProt O60674).
T29 construct: purchased Carna Biosciences, Inc
The note with it: at 10 nM; recombinant JAK2.

For another assay, the target named is T30, FGFR1 (Homo sapiens, UniProt P11362).
T30 construct: purchased Carna Biosciences, Inc
The note with it: at 10 nM; recombinant FGFR1.

In another assay the target is T31, EGFR(d746-750/T790M) (Homo sapiens, UniProt P00533, DEL746-750/T790M).
T31 construct: purchased Carna Biosciences, Inc
Conditions: at 10 nM; recombinant EGFR(d746-750/T790M).

Another assay concerns the target T32, LYNb (Homo sapiens, UniProt P07948).
T32 construct: purchased Carna Biosciences, Inc
The note with it: at 1 nM; recombinant LYNb.

The target in the next assay is T33, ITK (Homo sapiens, UniProt Q08881).
T33 construct: purchased Carna Biosciences, Inc
T33 sequence (Q08881 whole entry): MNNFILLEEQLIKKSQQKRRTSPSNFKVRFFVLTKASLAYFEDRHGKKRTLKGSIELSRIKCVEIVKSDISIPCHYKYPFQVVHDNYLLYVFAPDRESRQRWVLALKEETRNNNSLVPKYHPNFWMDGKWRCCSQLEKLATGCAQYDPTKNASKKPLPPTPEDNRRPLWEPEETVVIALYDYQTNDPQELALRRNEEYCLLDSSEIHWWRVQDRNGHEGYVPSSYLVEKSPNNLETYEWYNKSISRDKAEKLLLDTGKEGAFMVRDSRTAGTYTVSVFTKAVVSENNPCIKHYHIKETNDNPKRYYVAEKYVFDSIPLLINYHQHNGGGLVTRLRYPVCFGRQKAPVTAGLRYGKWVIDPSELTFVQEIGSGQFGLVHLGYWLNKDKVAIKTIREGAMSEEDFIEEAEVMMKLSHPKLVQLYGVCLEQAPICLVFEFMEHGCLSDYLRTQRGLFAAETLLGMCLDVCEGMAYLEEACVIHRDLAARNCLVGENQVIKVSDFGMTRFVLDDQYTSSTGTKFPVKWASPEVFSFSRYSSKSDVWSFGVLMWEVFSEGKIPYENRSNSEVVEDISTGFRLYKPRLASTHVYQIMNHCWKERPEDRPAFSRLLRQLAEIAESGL
Conditions: at 1 nM; recombinant ITK.

T9 sequence (P23458 whole entry): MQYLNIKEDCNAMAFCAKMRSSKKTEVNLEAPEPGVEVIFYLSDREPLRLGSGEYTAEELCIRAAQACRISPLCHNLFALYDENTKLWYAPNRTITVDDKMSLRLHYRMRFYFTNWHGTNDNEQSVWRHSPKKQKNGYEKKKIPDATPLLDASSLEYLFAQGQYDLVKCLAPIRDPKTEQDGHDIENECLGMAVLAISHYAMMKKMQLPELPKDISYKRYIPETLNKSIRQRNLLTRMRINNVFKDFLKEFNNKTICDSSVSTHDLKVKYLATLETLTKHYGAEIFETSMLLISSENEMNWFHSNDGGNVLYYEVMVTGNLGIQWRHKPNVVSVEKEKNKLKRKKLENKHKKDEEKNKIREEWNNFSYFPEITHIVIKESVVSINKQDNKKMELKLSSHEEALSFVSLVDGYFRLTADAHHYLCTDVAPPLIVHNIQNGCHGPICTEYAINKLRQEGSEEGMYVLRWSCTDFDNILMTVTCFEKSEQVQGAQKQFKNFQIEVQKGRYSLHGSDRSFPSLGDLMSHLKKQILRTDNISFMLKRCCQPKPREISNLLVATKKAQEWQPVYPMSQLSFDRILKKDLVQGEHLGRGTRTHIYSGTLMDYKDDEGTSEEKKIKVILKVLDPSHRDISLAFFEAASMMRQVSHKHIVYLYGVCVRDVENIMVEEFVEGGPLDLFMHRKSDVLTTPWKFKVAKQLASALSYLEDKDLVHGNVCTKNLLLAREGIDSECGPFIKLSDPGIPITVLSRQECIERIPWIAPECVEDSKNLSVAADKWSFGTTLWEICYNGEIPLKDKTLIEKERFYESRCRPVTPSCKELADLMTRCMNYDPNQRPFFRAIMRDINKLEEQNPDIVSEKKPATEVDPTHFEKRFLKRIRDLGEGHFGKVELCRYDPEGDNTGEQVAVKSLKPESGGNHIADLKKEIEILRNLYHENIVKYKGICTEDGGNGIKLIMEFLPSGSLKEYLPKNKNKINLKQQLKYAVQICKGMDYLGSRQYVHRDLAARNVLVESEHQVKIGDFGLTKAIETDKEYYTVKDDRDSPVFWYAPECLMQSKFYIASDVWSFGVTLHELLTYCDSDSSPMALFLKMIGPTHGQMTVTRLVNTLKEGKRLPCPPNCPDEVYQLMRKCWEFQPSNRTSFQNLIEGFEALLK

With `[2H]c1cc(C)c(NC(=O)c2cnc(Nc3cc(N4CCCCC4)nc(C)n3)s2)c(Cl)c1` [Compound I, N-(2-chloro-4-deuterio-6-methyl-phenyl)-2-[[2-methyl-6-(1-piperidyl)pyrimidin-4-yl]amino]thiazole-5-carboxamide], the inhibition at 0.01 µM on SRM was > 50%; at CSK, > 50%; on KIT(D816Y), > 50%; at BRK, > 50%; on KIT(D816E), < 50%; on KIT(V654A), < 50%. Besides, the inhibition at 0.01 µM on EGFR(L861Q), on EGFR(d746-750), at JAK1, at RET, at RET(S891A) and at ALK was < 50% in each case. The inhibition at 0.01 µM on WNK3, at BRAF(V600E), on ROCK1, at AurA, on MAP2K2 and at RET(M918T) was < 50% in each case. Also, the inhibition at 0.01 µM on FGFR2, at EGFR(T790M), on PDGFRα(T674I), at JAK3, on MAP2K1 and on EGFR(T790M/L858R) was < 50% throughout. In addition, the inhibition at 0.01 µM on FLT1, at MET, on MST1, on PKD1, on JAK2 and on FGFR1 was < 50% each time. Further, the inhibition at 0.01 µM on EGFR(d746-750/T790M) is < 50%.
With `[2H]c1cc(C)c(NC(=O)c2cnc(Nc3cc(N4CCC(O)CC4)nc(C)n3)s2)c(Cl)c1` [Compound II, N-(2-chloro-4-deuterio-6-methyl-phenyl)-2-[[6-(4-hydroxy-1-piperidyl)-2-methyl-pyrimidin-4-yl]amino]thiazole-5-carboxamide], the figures for the inhibition at 0.001 µM at LYNb and on ITK were > 50% and < 50%, respectively.

The values are drawn from patent US10479786B2, “Protein kinase inhibitors” (Princeton Drug Discovery Inc, priority 2016, dated 2019).
